From paper PMC6743424, “Phenolic acid phenethylesters and their corresponding ketones: Inhibition of 5‐lipoxygenase and stability in human blood and HepaRG cells” (Pharmacology Research & Perspectives, 2019)

Columns and labels:
HepaRG cells = assay: Kinetics of test compound disappearance in HepaRG cell culture (HPLC); format: in vitro ADME, human; conditions: 30 µmol/L, 37°C; mean (95% confidence interval), four experiments
Procedure: Undifferentiated cryopreserved HepaRG cells (BioPredic International) were seeded in 12 or 24 well plates at 1.1 × 10^5 and 0.55 × 10^5 cells per well, respectively. Cells were cultured for 14 days in Williams E‐medium supplemented with 1% penicillin‐streptomycin (10 000 U/mL), 10% fœtal bovine serum (FBS), 50 mg/L hydrocortisone hemisuccinate, 5 mg/L insulin and 2 mmol/L Glutamax, and the medium was renewed every 2‐3 days. After 14 days, the culture medium was replaced by the same formulation as above supplemented with 2% dimethyl sulfoxide (DMSO) to induce differentiation. Cells were considered differentiated and ready for experiments after 14 days of differentiation (28 days after seeding).
Differentiated HepaRG cells, plated in 24 well plates, were washed with hepatocyte suspension medium (Williams E‐medium without phenol red, supplemented with 2 mmol/L Glutamax and […] HEPES) before addition of hepatocyte suspension medium (250 µL/well) containing (30 or 50 µmol/L) of the test compounds or their diluent. Cells were then incubated for 7.5, 15, 30, 60 or 90 minutes at 37°C after which the medium was removed.
In experiments where the test compounds incubated with HepaRG cells were to be measured, the cell layer was washed with 250 µL of hepatocyte suspension medium which was then pooled with the first medium. The mixture was then added to 250 µL of ice cold CH3OH:CH3CN (1:1, vol:vol) containing 10 µmol/L of phenethyl 3,4,5‐trimethoxycinnamate as an internal standard. The resulting solution was frozen at −80°C for 2 hour to precipitate any dissolved proteins, centrifuged at 1800g and the supernatant transferred to vials and stored at −20°C until HPLC analysis.
Figure 5 Kinetics of test compound disappearance in HepaRG cell culture. (A) HepaRG cells were incubated in 250 µL of hepatocyte suspension medium containing 30 µmol/L of test compounds for the indicated times at 37°C. Supernatants were removed and added to 250 µL of ice cold CH3OH:CH3CN (1:1 vol:vol) containing 10 µmol/L of phenethyl 3,4,5‐trimethoxycinnamate as an internal standard. The cell layer was washed with 250 µL of hepatocyte suspension medium and added to the above mixture. Samples were centrifuged at 1900g and the supernatants were collected for HPLC analysis as described in the Methods. Values are means ± SEM. (B) Calculated half‐lives of the test compounds in HepaRG cell cultures. Values are means (95% confidence interval). All data are from four independent experiments TEXT PRINTED IN THE PICTURE: (B) CAPE (2): Half-life (Minutes): 4.70 (4.42 - 5.02) | (B) 7: Half-life (Minutes): 6.42 (5.72 -7.31) | (B) 5: Half-life (Minutes): 3.71 (3.67-3.74) | (B) 8: Half-life (Minutes): 6.48 (6.01-7.04) | (B) 9: Half-life (Minutes): 4.38 (4.23 - 4.55) | (B) 10: Half-life (Minutes): 11.32 (10.21- 12.71)

5‐LO = biological target: T1, 5‐LO (Homo sapiens, UniProt P09917); assay: Ex vivo whole blood stimulation with opsonized zymosan, 5‐LO products; format: cell-based; parameters: endogenous in cells; host or cells: human polymorphonuclear leukocytes isolated from heparinized blood; conditions: 5‐LO product biosynthesis in whole blood, mean (95% confidence interval)
T1 sequence (P09917 1-674): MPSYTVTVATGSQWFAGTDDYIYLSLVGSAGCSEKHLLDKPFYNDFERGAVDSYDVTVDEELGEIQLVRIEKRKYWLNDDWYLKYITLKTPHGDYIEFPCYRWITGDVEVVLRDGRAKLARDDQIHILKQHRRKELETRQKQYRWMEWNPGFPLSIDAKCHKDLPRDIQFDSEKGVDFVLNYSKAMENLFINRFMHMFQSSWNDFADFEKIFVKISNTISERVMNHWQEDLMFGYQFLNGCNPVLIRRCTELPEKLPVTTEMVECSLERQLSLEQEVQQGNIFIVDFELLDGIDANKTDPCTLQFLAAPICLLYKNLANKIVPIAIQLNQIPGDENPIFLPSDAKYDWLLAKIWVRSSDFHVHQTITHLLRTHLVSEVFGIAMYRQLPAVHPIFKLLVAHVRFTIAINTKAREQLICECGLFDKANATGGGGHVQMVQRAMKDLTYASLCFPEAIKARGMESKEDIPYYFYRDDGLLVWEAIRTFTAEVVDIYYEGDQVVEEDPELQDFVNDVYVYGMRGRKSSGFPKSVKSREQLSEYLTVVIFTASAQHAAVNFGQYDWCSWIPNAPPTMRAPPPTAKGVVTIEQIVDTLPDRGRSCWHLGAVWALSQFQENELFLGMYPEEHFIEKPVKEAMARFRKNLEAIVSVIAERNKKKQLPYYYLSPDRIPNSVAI
Procedure: Blood was collected in tubes containing heparin as anticoagulant. Test compounds or their diluent control (DMSO, 0.1%) were added to 1 mL of heparinized blood at the indicated concentrations and incubated for 5 minutes in a water bath at 37°C. Stimulation was initiated with the addition of 125 μL of 40 mg/mL of opsonized zymosan, samples were then gently vortexed and incubated at 37°C for 30 minutes.34 Samples were then centrifuged at 960g for 10 minutes at 4°C, plasma was removed and added to tubes containing 4 volumes of CH3OH:CH3CN (1:1) containing 100 ng/mL of PGB2 as internal standard. Samples were stored overnight at −20°C, and then centrifuged at 3300g for 10 minutes. Samples were then purified on C18 cartridges, were eluted with CH3OH, dried under nitrogen, resuspended in 46% of CH3OH:CH3CN (1:1), and analyzed using RP‐HPLC as described above.

Half-life in HepaRG cell cultures (HepaRG cells) | IC50 (5‐LO) [nM] | SMILES
6.42 (5.72 -7.31) Minutes | 2300 | O=C(/C=C/c1ccc(O)c(O)c1)CCCc1ccccc1 [compound 7]
6.48 (6.01-7.04) Minutes | 1150 | O=C(/C=C/c1cc(O)ccc1O)CCc1ccccc1 [compound 8]
11.32 (10.21- 12.71) Minutes | 1200 | COc1cc(/C=C/C(=O)CCc2ccccc2)cc(OC)c1O [compound 10, sinapic acid phenethyl ketone]
3.71 (3.67-3.74) Minutes | 1000 | O=C(/C=C/c1cc(O)ccc1O)OCCc1ccccc1 [compound 5]
4.70 (4.42 - 5.02) Minutes | 3580 | O=C(/C=C/c1ccc(O)c(O)c1)OCCc1ccccc1 [CAPE (2), caffeic acid phenethyl ester, reference compound]
